Experimental data: publication PMC8343220, “The selectivity of α‐adrenoceptor agonists for the human α1A, α1B, and α1D‐adrenoceptors” (Pharmacology Research & Perspectives, 2021)
Like-named read-outs stand apart in the source and are kept apart here.

How the values were obtained:
human α1A‐adrenoceptor [1] = biological target: T1, human α1A‐adrenoceptor (Homo sapiens, UniProt P35348); assay: ^3H‐prazosin whole‐cell radioligand binding, CHO‐α1A cells
T1 construct: expressed in transfected cells; host or cells: CHO-K1
T1 sequence (P35348 1-466): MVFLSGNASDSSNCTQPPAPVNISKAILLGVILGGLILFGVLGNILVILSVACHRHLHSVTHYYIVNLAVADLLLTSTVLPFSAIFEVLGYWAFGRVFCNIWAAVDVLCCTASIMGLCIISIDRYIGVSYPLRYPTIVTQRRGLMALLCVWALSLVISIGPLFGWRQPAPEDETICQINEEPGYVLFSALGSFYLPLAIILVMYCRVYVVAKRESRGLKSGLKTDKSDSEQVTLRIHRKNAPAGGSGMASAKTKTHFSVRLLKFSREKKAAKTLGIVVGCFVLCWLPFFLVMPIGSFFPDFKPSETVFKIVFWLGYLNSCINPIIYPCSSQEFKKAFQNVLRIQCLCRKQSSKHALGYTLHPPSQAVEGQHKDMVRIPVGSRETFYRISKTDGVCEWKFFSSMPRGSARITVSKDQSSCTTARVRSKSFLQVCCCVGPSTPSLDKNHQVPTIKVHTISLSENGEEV

human α1B‐adrenoceptor [2] = biological target: T2, human α1B‐adrenoceptor (Homo sapiens, UniProt P35368); assay: ^3H‐prazosin whole‐cell radioligand binding, CHO‐α1B cells; settings: CHO‐α1B cells
T2 construct: expressed in transfected cells; host or cells: CHO-K1
T2 sequence (P35368 1-520): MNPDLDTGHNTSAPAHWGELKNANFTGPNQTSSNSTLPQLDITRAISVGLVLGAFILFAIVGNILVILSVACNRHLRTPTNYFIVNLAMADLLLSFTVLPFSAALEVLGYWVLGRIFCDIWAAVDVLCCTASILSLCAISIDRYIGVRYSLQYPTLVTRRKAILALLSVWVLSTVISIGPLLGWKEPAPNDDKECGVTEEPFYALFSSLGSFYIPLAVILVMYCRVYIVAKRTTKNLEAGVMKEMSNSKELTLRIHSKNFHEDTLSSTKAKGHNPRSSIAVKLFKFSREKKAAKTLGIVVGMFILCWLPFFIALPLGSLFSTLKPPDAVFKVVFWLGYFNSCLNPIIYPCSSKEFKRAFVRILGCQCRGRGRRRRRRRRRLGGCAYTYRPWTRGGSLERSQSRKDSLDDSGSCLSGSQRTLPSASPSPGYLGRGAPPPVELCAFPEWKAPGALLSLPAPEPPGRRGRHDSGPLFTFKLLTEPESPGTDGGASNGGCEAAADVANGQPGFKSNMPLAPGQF

[3] = biological target: T3, human α1D‐adrenoceptor (full length) (Homo sapiens, UniProt P25100); assay: ^3H‐prazosin whole‐cell radioligand binding, CHO‐α1D cells; settings: for Kd: CHO‐α1D cells
T3 construct: human α1D‐adrenoceptor (full length) were used; expressed in transfected cells; host or cells: CHO-K1
T3 sequence (P25100 1-572): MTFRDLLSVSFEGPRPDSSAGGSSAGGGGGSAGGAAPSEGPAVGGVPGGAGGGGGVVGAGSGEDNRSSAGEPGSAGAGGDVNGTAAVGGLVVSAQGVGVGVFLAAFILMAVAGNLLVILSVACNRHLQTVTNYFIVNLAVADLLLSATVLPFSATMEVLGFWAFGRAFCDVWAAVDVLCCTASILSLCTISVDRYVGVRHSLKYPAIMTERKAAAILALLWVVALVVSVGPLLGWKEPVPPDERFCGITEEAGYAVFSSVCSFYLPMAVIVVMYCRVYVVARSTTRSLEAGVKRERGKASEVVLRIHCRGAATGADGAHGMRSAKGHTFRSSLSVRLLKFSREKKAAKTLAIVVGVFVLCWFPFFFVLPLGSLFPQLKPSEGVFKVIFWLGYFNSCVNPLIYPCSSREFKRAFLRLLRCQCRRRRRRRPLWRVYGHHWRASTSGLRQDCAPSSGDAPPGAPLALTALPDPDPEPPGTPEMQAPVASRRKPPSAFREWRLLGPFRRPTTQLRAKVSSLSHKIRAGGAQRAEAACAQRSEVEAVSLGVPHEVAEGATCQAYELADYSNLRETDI

human α1A‐adrenoceptor [4] = biological target: T1, human α1A‐adrenoceptor; assay: Intracellular free calcium mobilization, CHO‐α1A cells; format: cell-based
human α1B‐adrenoceptor [5] = biological target: T2, human α1B‐adrenoceptor; assay: Intracellular free calcium mobilization, CHO‐α1B cells; format: cell-based; settings: for EC50: CHO‐α1B cells, given as log EC50 (negative numbers), read-out: Intracellular calcium release Log EC50 (converted)
[6] = biological target: T3, human α1D‐adrenoceptor (full length); assay: Intracellular free calcium mobilization, CHO‐α1D cells; format: cell-based; settings: for Intracellular calcium release Log EC50: CHO‐α1D cells, log values given negative
human α1A‐adrenoceptor [7] = biological target: T1, human α1A‐adrenoceptor; assay: ERK1/2‐phosphorylation (Surefire Alphascreen), CHO‐α1A cells; format: cell-based
human α1B‐adrenoceptor [8] = biological target: T2, human α1B‐adrenoceptor; assay: ERK1/2‐phosphorylation (Surefire Alphascreen), CHO‐α1B cells; format: cell-based; settings: for EC50: CHO‐α1B cells, for bi‐phasic responses the initial stimulatory part, read-out: ERK1/2‐phosphorylation Log EC50 (converted)
[9] = biological target: T3, human α1D‐adrenoceptor (full length); assay: ERK1/2‐phosphorylation (Surefire Alphascreen), CHO‐α1D cells; format: cell-based; settings: for ERK1/2‐phosphorylation Log EC50: CHO‐α1D cells, log values given negative
[10] = system: parental CHO cell line without any transfected receptors; assay: ERK1/2‐phosphorylation, parent CHO cells without transfected receptors; format: cell-based, Chinese hamster; settings: for ERK1/2-phosphorylation % PDBu: maximal response as % of PDBu (10μM) response
human α1A‐adrenoceptor [11] = biological target: T1, human α1A‐adrenoceptor; assay: ^3H‐cAMP accumulation, CHO‐α1A cells; format: cell-based; settings: CHO‐α1A cells
human α1B‐adrenoceptor [12] = biological target: T2, human α1B‐adrenoceptor; assay: ^3H‐cAMP accumulation, CHO‐α1B cells; format: cell-based; settings: CHO‐α1B cells; for cAMP accumulation % forskolin: % forskolin maximum response; for EC50: read-out: cAMP accumulation Log EC50 (converted)
human α1A‐adrenoceptor [13] = biological target: T1, human α1A‐adrenoceptor; assay: ^3H‐cAMP accumulation in the presence of 10 μM forskolin, CHO‐α1A cells; format: cell-based; settings: for cAMP accumulation (in presence of forskolin) Fold increase: fold increase of the forskolin response
human α1B‐adrenoceptor [14] = biological target: T2, human α1B‐adrenoceptor; assay: ^3H‐cAMP accumulation in the presence of 10 μM forskolin, CHO‐α1B cells; format: cell-based; settings: CHO‐α1B cells; for cAMP accumulation (in presence of forskolin) Fold increase: fold increase of the forskolin response; for EC50: in presence of forskolin, read-out: cAMP accumulation (in presence of forskolin) Log EC50 (converted)
[15] = system: parental CHO cell line without any transfected receptors; assay: Forskolin‐stimulated cAMP accumulation, parent CHO cells without transfected receptors; format: cell-based, Chinese hamster; settings: CHO cells without transfected receptors; in presence of forskolin
[16] = Log KD α1A, ^3H‐prazosin whole cell binding, CHO‐α1A cells, given as log KD (negative), mean ± SEM
[17] = Log KD α1B, ^3H‐prazosin whole cell binding, given as log KD (negative), mean ± SEM
[18] = Log KD, ^3H‐prazosin binding, whole‐cell binding (from Table 1), given as log KD (negative numbers)
[19] = 3H‐prazosin binding Log KD, whole‐cell binding (from Table 1), log values given negative
[20] = Log KD α1D, ^3H‐prazosin whole cell binding, given as log KD (negative), mean ± SEM, 'early plateau' = specific binding not fully inhibited
[21] = CHO‐α1A cells, given as log EC50 (negative), read-out: Intracellular calcium release Log EC50 (converted)
[22] = CHO‐α1A cells, 2–4 min, ^a bi‐phasic: initial stimulatory part, ^b also active in parent CHO cells, read-out: ERK1/2‐phosphorylation Log EC50 (converted)
[23] = CHO cells without transfected receptors, mean ± s.e.m.
[24] = CHO‐α1A cells, 10 μM forskolin, read-out: cAMP accumulation (in presence of forskolin) Log EC50 (converted)

Row | SMILES | Affinity selectivity ratio α1A vs α1B (human α1A‐adrenoceptor [1]) [fold] | Affinity selectivity ratio α1A vs α1D (human α1A‐adrenoceptor [1]) [fold] | Kd (human α1A‐adrenoceptor [1]; [16]) [nM] | Kd (human α1B‐adrenoceptor [2]; [17]) [nM] | Kd (human α1B‐adrenoceptor [2]; [18]) [nM] | Affinity selectivity ratio α1B vs α1D [3] [fold] | Kd [3, 19] [nM] | Kd [3, 20] [nM] | Intracellular calcium release % ionomycin (human α1A‐adrenoceptor [4]) [%] | Log efficacy ratio KD /EC50 (human α1A‐adrenoceptor [4]) | EC50 (human α1A‐adrenoceptor [4]; [21]) [nM] | Intracellular calcium release % ionomycin (human α1B‐adrenoceptor [5]) [%] | Log efficacy ratio KD /EC50 (human α1B‐adrenoceptor [5]) | EC50 (human α1B‐adrenoceptor [5]) [nM] | Intracellular calcium release % ionomycin [6] | Intracellular calcium release Log EC50 [6] | ERK1/2‐phosphorylation % PDBu (human α1A‐adrenoceptor [7]) [%] | ERK1/2‐phosphorylation % PDBu (human α1B‐adrenoceptor [8]) [%] | ERK1/2‐phosphorylation % PDBu [9] | cAMP accumulation (in presence of forskolin) Log EC50 [15] | also measured
1 | Brc1c(NC2=NCCN2)ccc2nccnc12 [UK14304] | 4.4 | 1.5 | 2950 | 12900 | 12900 | 3.0 | 4370 | 4370 | 45.6 ± 1.6 | 1.64 | 67.6 | 27.5 ± 1.8 | 2.26 | 70.8 | No response | No response | 88.7 ± 4.3 | 33.8 ± 5.0 | No response | No response | EC50 (human α1A‐adrenoceptor [7]; [22]): 186 nM; EC50 (human α1B‐adrenoceptor [8]): 316 nM; ERK1/2‐phosphorylation Log EC50 [9]: No response; ERK1/2-phosphorylation % PDBu [10, 23]: No response; ERK1/2-phosphorylation Log EC50 [10, 23]: No response; cAMP accumulation % forskolin at 10 μM (human α1A‐adrenoceptor [11]; response at 10 μM ligand, no EC50 obtained): 12.0 ± 1.1%; cAMP accumulation % forskolin (human α1B‐adrenoceptor [12]): 2.7 ± 0.1%; EC50 (human α1B‐adrenoceptor [12]): 95.5 nM; EC50 (human α1A‐adrenoceptor [13]; [24]): 1380 nM; cAMP accumulation (in presence of forskolin) Fold increase (human α1A‐adrenoceptor [13]; CHO‐α1A cells): 1.95 ± 0.09 fold; cAMP accumulation (in presence of forskolin) Fold increase (human α1B‐adrenoceptor [14]): 1.50 ± 0.05 fold; EC50 (human α1B‐adrenoceptor [14]): 97.7 nM
2 | Brc1c(NC2=NCCN2)ccc2nccnc12 [Brimonidine] | 4.8 | 1.2 | 4370 | 20900 | 20900 | 3.9 | 5370 | 5370 | 47.8 ± 4.1 | 1.57 | 117 | 35.8 ± 2.4 | 2.33 | 97.7 | No response | No response | 86.4 ± 3.6 | 41.2 ± 6.2 | No response | No response | EC50 (human α1A‐adrenoceptor [7]; [22]): 363 nM; EC50 (human α1B‐adrenoceptor [8]): 724 nM; ERK1/2‐phosphorylation Log EC50 [9]: No response; Emax at 100 µM ([10]; Cricetulus griseus, CHO, read-out: ERK1/2-phosphorylation % PDBu at 100μM): 2.3 ± 1.7%; EC50 (human α1A‐adrenoceptor [11]; 5 h, read-out: cAMP accumulation Log EC50 (converted)): 5750 nM; cAMP accumulation % forskolin (human α1A‐adrenoceptor [11]; % of 10 µM forskolin response): 17.8 ± 1.7%; cAMP accumulation % forskolin (human α1B‐adrenoceptor [12]): 4.5 ± 1.6%; EC50 (human α1B‐adrenoceptor [12]): 129 nM; EC50 (human α1A‐adrenoceptor [13]; [24]): 1580 nM; cAMP accumulation (in presence of forskolin) Fold increase (human α1A‐adrenoceptor [13]; CHO‐α1A cells): 1.96 ± 0.05 fold; cAMP accumulation (in presence of forskolin) Fold increase (human α1B‐adrenoceptor [14]): 1.58 ± 0.07 fold; EC50 (human α1B‐adrenoceptor [14]): 105 nM
3 | CNCC(O)c1ccc(O)cc1 (stereo not drawn) [Synephrine] |  |  |  |  |  |  |  |  | 55.4 ± 1.9 |  |  | 57.5 ± 1.9 |  |  | 16.3 ± 2.9% |  | 87.4 ± 8.6 | 95.1 ± 8.7 | 14.5 ± 2.8% | No response | Kd (human α1A‐adrenoceptor [1]): 55000 nM; EC50 (human α1A‐adrenoceptor [4]): 219 nM; EC50 (human α1A‐adrenoceptor [7]): 603 nM; ERK1/2-phosphorylation % PDBu [10, 23]: No response; cAMP accumulation % forskolin at 100 µM (human α1A‐adrenoceptor [11]; response at 100 μM ligand, no EC50 obtained): 25.4 ± 3.4%; cAMP accumulation % forskolin at 100 µM (human α1B‐adrenoceptor [12]; response at 100 µM ligand (no EC50 given)): 23.2 ± 2.5%; EC50 (human α1A‐adrenoceptor [13]): 7080 nM
